From patent publication US20230172204A1 (BASF SE, priority 2020, published 2023)

Columns and labels:
[1] = system: Phakopsora pachyrhizi (F129L); test: Protective control of soybean rust on soybeans (PHAKPA P6); assay type: in vivo; conditions: for % PHAKPA (F129L) Disease level P6 at 4 ppm: protective P6, 4 ppm; for % PHAKPA (F129L) Disease level P6 at 4 ppm / % PHAKPA (F129L) Disease level P6 at 16 ppm: soybean rust F129L; for % PHAKPA (F129L) Disease level P6 at 16 ppm: protective P6, 16 ppm
[2] = system: Phakopsora pachyrhizi (F129L); test: Protective control of soybean rust on soybeans (PHAKPA P2); assay type: in vivo; conditions: for % PHAKPA (F129L) Disease level P2 at 4 ppm: protective P2, 4 ppm; for % PHAKPA (F129L) Disease level P2 at 4 ppm / % PHAKPA (F129L) Disease level P2 at 16 ppm: soybean rust F129L; for % PHAKPA (F129L) Disease level P2 at 16 ppm: protective P2, 16 ppm
[3] = P6 protective, % diseased leaf area
[4] = P2 protective, % diseased leaf area

SMILES | % PHAKPA (F129L) Disease level P6 at 4 ppm [1] [%] | % PHAKPA (F129L) Disease level P6 at 16 ppm [1] [%] | % PHAKPA (F129L) Disease level P2 at 4 ppm [2] [%] | % PHAKPA (F129L) Disease level P2 at 16 ppm [2] [%] | PHAKPA (F129L) Disease level (%) P6 at 16 ppm [1, 3] [%] | PHAKPA (F129L) Disease level (%) P2 at 16 ppm [2, 4] [%] | PHAKPA (F129L) Disease level (%) P6 at 4 ppm ([1]; P6 protective, 4 ppm, % diseased leaf area) [%] | PHAKPA (F129L) Disease level (%) P2 at 4 ppm ([2]; P2 protective, 4 ppm, % diseased leaf area) [%]
CO/N=C(/C(=O)OC)c1cccc(C)c1CO/N=C(\C)c1ccc(Cc2ccccc2)cc1OC(F)(F)F [compound 416] | 67 | 25 | 57 | 27 |  |  |  | 
CO/N=C(/C(=O)OC)c1cccc(C)c1CO/N=C(\C)c1cccc(OC(F)F)c1 [compound 80] | 30 | 3 | 50 | 10 |  |  |  | 
CO/N=C(/C(=O)OC)c1cccc(C)c1CO/N=C(\C)c1cc(F)c(F)cc1C(F)(F)F [compound 409] | 83 | 73 | 77 | 40 |  |  |  | 
CNC(=O)/C(=N/OC)c1ccccc1CO/N=C(\C)c1ccc(C#N)cc1 [reference compound] |  |  |  |  | 63 | 37 |  | 
CO/N=C(/C(=O)OC)c1cccc(C)c1CO/N=C(\C)c1c(F)cc(F)cc1C(F)(F)F [compound 360] | 80 | 5 | 53 | 9 |  |  |  | 
CO/N=C(/C(=O)OC)c1ccccc1CO/N=C(/c1ccc(Cl)cc1)C(F)F [reference compound] |  |  |  |  | 90 | 100 |  | 
CNC(=O)/C(=N/OC)c1cccc(C)c1CO/N=C(\C)c1ccc(F)cc1C(F)(F)F [compound 260] | 22 | 0 | 22 | 0 |  |  |  | 
C#Cc1cccc(/C(C)=N/OCc2c(C)cccc2/C(=N\OC)C(=O)NC)c1F [compound 401] | 32 | 4 | 17 | 5 |  |  |  | 
CNC(=O)/C(=N/OC)c1cccc(C)c1CO/N=C(\C)c1cc(C(F)(F)F)cc(F)c1NC [compound 238] | 100 | 77 | 100 | 53 |  |  |  | 
CNC(=O)/C(=N/OC)c1cccc(C)c1CO/N=C(\C)c1ccccc1OC1CC1 [compound 329] | 100 | 73 | 100 | 53 |  |  |  | 
CO/C=C(/C(=O)OC)c1cccc(C)c1CO/N=C(\C)c1ccc(-c2ccccc2)cc1OC(F)(F)F [compound 433] | 80 | 57 | 83 | 67 |  |  |  | 
CNC(=O)/C(=N/OC)c1cccc(C2CC2)c1CO/N=C(\C)c1cccc(C(F)(F)F)c1 [Ex. 11] | 20 | 0 | 23 | 1 |  |  |  | 
CO/N=C(/C(=O)OC)c1cccc(C)c1CO/N=C(\C)c1ccc(F)cc1Cl [compound 256] | 70 | 20 | 50 | 18 |  |  |  | 
CNC(=O)/C(=N/OC)c1cccc(C)c1CO/N=C(/c1ccc(Cl)cc1)C(F)F [compound 22] | 100 | 93 | 100 | 90 |  |  |  | 
CNC(=O)/C(=N/OC)c1cccc(C)c1CO/N=C(\C)c1ccccc1C#N [compound 225] | 100 | 97 | 83 | 27 |  |  |  | 
CO/N=C(/C(=O)OC)c1cccc(C)c1CO/N=C(\C)c1c(F)cc(Br)cc1C(F)(F)F [compound 368] | 90 | 73 | 83 | 47 |  |  |  | 
CO/N=C(/C(=O)OC)c1cccc(C)c1CO/N=C(\C)c1ccccc1F [Ex. 1, Methyl (2E)-2-[2-[[(E)-3-(2-fluorophenyl)ethylideneamino]oxymethyl]-3-methyl-phenyl]-2-methoxyimino-acetate] | 90 | 56 | 80 | 27 | 47 | 28 |  | 
CO/N=C(/C(=O)OC)c1ccccc1CO/N=C(\C)c1cccc(Br)c1 [reference compound] |  |  |  |  | 87 | 80 |  | 

SMILES | % PHAKPA (F129L) Disease level P6 at 4 ppm [1] [%] | % PHAKPA (F129L) Disease level P6 at 16 ppm [1] [%] | % PHAKPA (F129L) Disease level P2 at 4 ppm [2] [%] | % PHAKPA (F129L) Disease level P2 at 16 ppm [2] [%] | PHAKPA (F129L) Disease level (%) P6 at 16 ppm [1, 3] [%] | PHAKPA (F129L) Disease level (%) P2 at 16 ppm [2, 4] [%] | PHAKPA (F129L) Disease level (%) P6 at 4 ppm ([1]; P6 protective, 4 ppm, % diseased leaf area) [%] | PHAKPA (F129L) Disease level (%) P2 at 4 ppm ([2]; P2 protective, 4 ppm, % diseased leaf area) [%]
CO/N=C(/C(=O)OC)c1ccccc1CO/N=C(\C)c1ccc(C(F)(F)F)cc1 [reference compound] |  |  |  |  | 13 | 43 |  | 
CNC(=O)/C(=N/OC)c1ccccc1CO/N=C(\C)c1cccc(Br)c1 [reference compound] |  |  |  |  |  |  | 70 | 27
CO/C=C(/C(=O)OC)c1cccc(C)c1CO/N=C(\C)c1ccc(Br)cc1C(F)(F)F [compound 445] | 30 | 2 | 15 | 1 |  |  |  | 
CNC(=O)/C(=N/OC)c1cccc(C)c1CO/N=C(\C)c1ccc(-c2ccccc2)cc1OC(F)(F)F [compound 435] | 87 | 60 | 93 | 57 |  |  |  | 
CO/N=C(/C(=O)OC)c1cccc(C)c1CO/N=C(\C)c1ccc(F)cc1 [compound 103] | 35 | 4 | 40 | 3 |  |  |  | 
CO/C=C(/C(=O)OC)c1cccc(C)c1CO/N=C(\C)c1ccc(Cl)c(Cl)c1C(F)(F)F [compound 430] | 37 | 17 | 22 | 6 |  |  |  | 
CNC(=O)/C(=N/OC)c1cccc(C)c1CO/N=C(\C)c1ccc(F)cc1Cl [compound 262] | 47 | 4 | 63 | 1 |  |  |  | 
CO/N=C(/C)c1ccc(/C(C)=N/OCc2c(C)cccc2/C(=N\OC)C(=O)OC)c(OC(F)(F)F)c1 [compound 418] | 73 | 57 | 70 | 33 |  |  |  | 
CO/N=C(/C(=O)OC)c1cccc(CF)c1CO/N=C(\C)c1cccc(C(F)(F)F)c1 [compound 25] | 50 | 2 | 16 | 3 |  |  |  | 
CO/N=C(/C(=O)OC)c1cccc(C)c1CO/N=C(\C)c1cccc(C(C)C)c1 [compound 95] | 33 | 4 | 11 | 0 |  |  |  | 
CNC(=O)/C(=N/OC)c1cccc(C)c1CO/N=C(\C)c1ccc(/C(C)=N\OC)cc1OC(F)(F)F [compound 415] | 67 | 11 | 47 | 5 |  |  |  | 
C=Cc1cccc(/C(=N\OC)C(=O)OC)c1CO/N=C(\C)c1cccc(C(F)(F)F)c1 [Ex. 13] | 25 | 0 | 28 | 0 |  |  |  | 
CNC(=O)/C(=N/OC)c1cccc(C)c1CO/N=C(\C)c1cc(Br)ccc1F [compound 140] | 13 | 4 | 8 | 0 |  |  |  | 
CC/C(=N\OCc1c(C)cccc1/C(=N\OC)C(=O)NC)c1ccccc1 [compound 294] | 2 | 0 | 1 | 1 |  |  |  | 
CNC(=O)/C(=N/OC)c1cccc(C)c1CO/N=C(\C)c1cccc(C(C)C)c1 [compound 105] | 39 | 13 | 18 | 1 |  |  |  | 
CNC(=O)/C(=N/OC)c1cccc(C)c1CO/N=C(\C)c1ccc(F)cc1F [compound 267] | 10 | 4 | 2 | 0 |  |  |  | 
CO/N=C(/C(=O)OC)c1cccc(C)c1CO/N=C(\C)c1ccc(OC(F)(F)F)cc1Cl [compound 268] | 60 | 17 | 63 | 6 |  |  |  | 
CO/N=C(/C(=O)OC)c1cccc(C)c1CO/N=C(\C)c1ccc(C)c(C(F)(F)F)c1 [compound 229] | 77 | 6 | 27 | 2 |  |  |  | 
